The source of these data is patent US20150284347A1, “NEW BENZENE SULFONAMIDE THIAZOLE COMPOUNDS” (INSERM (INSTITUT NATIONAL DE LA SANTÉ ET DE LA RECHERCHE …, priority 2012, published 2015).

The subject of data set [1] is normal human melanocytes. The experiment in a line: Trypan blue cell viability, normal melanocytes. It counts as cell-based. As to conditions: 10 μM, FIG. 2. The procedure:
Primary cell cultures of human normal melanocytes were prepared from human foreskin. In order to determine the effect of compound HA15 on cell viability of melanocytes and fibroblasts, 10 μM of ciglitazone or 10 μM of HA15 were added to the cell samples. The measure of cell viability was performed in the same way as for FIG. 1. Results are expressed as the percentage of living cells relatively to the number of living cells in the presence of DMSO, as for FIG. 1. Normal human melanocytes (NHM) prepared from foreskins of newborns were grown under 5% CO2 at 37° C. in MCDB 153 (Sigma) supplemented with 2% FCS, bovine pituitary extract (10 μg/ml), PMA (8 nM), bFGF (ing/nil), insulin (5 μg/ml), hydrocortisone (0.5 μg/ml), forskolin (10 μM), gentamicin (20 μg/ml), penicillin/streptomycin/amphotericin B (100 U/ml) (Invitrogen). Cells were seeded in 6-well plates (60000 cells/well), depleted and incubated with compounds for the times indicated. Then cells were detached in the presence of 2000 of […] (Thermo) and 2 ml of RPMI 1640 Glutamax (Gibco) was added to the cell solution. 100 of this solution was stained for 1 minute with 100 of 0.4% trypan blue before counting with a Malassez chamber. The effect of compound HA15 on cell viability of melanocytes and fibroblasts was studied, as illustrated by FIG. 2. Primary cell cultures of human normal melanocytes were prepared from human foreskin. […]

In data set [2] the test system is A375 melanoma cells. Put plainly: A375 melanoma xenograft tumor development in nude mice. As to conditions: 0.7 mg/mouse/day over 24 days, athymic nude mice. The class given is in vivo. As for the experimental part: To assess a potential antineoplastic effect of (HA15) and (SR50) in vivo, A375 melanoma cells (2.5×10^6) were injected subcutaneously in 6-week-old female athymic nude mice and treated 5 days later by injection of vehicle (labrafil) or different compounds such as PLX4032, (HA15) and (SR50) (0.7 mg/mouse/day) over a period of 24 days. Inhibitory effect is expressed as the tumor volume (mm^3) on day 8, 11, 15, 18, 22 and 24.
Athymic BALB/C nu/nu mice (Harlan) were used. The animals were 6 weeks old and weighed between 20 and 25 g. The mice were housed in the animal's C3M in a 12 h/12 h cycle. The animals received water and food ad libitum. Mice were first acclimated for one week and then injected with A375 cells (2.5 million cells in 200 μl of PBS) subcutaneously into the right and left sides. Treatment was started eight days after injection of cancer cells (when tumors were visible). The various compounds were diluted in a mixture of Labrafil (90%) (Gattefosse), Tween 80 (1%) and N,N-Dimethylacetamide (9%). Five groups of six mice treated every day intraperitoneally with 0.7 mg/day of PLX4032, SR44 (HA15), SR47 (HA32), SR50 (JG25) or with the mixture of Labrafil in control were defined. Three times a week the tumor size was measured using a caliper. […]

Data set [3] relates to melanoma cells resistant to dabrafenib. Put plainly: Trypan blue cell viability, melanoma cells resistant to dabrafenib. The following applies: patient melanoma cells resistant to dabrafenib, FIG. 5. The class given is cell-based, human. As for the experimental part: The measure of cell viability was performed in the same way as for FIG. 1. Results are expressed as percentage of cells alive relatively to the number of living cells in the presence of DMSO, which is a negative control
Cells were seeded in 6-well plates (60000 cells/well), depleted and incubated with compounds for the times indicated. Then cells were detached in the presence of 2000 of HyQTase (Thermo) and 2 ml of RPMI 1640 Glutamax (Gibco) was added to the cell solution. 100 of this solution was stained for 1 minute with 100 of 0.4% trypan blue before counting with a Malassez chamber.
Melanoma cells resistant to dabrafenib wee prepared from patients treated and presented a resistance to dabrafenib. dabrafenib, [HA15], [SR47] and [SR50] were tested on these resistant cells, in order to determine their activity on cell viability of resistant melanoma cells, as illustrated in FIG. 5.

In data set [4] the test system is normal human fibroblasts. The experiment in a line: Trypan blue cell viability, normal fibroblasts. The class given is cell-based. As to conditions: 10 μM, FIG. 2. As for the experimental part: Primary cell cultures of human normal melanocytes were prepared from human foreskin. In order to determine the effect of compound HA15 on cell viability of melanocytes and fibroblasts, 10 μM of ciglitazone or 10 μM of HA15 were added to the cell samples. The measure of cell viability was performed in the same way as for FIG. 1. Results are expressed as the percentage of living cells relatively to the number of living cells in the presence of DMSO, as for FIG. 1. Normal human fibroblasts prepared from foreskins of newborns were grown under 5% CO2 at 37° C. in DMEM medium supplemented with 10% FCS and penicillin/streptomycin (100 U/ml/[…]). Cells were seeded in 6-well plates (60000 cells/well), depleted and incubated with compounds for the times indicated. Then cells were detached in the presence of 2000 of […] (Thermo) and 2 ml of RPMI 1640 Glutamax (Gibco) was added to the cell solution. 100 of this solution was stained for 1 minute with 100 of 0.4% trypan blue before counting with a Malassez chamber. The effect of compound HA15 on cell viability of melanocytes and fibroblasts was studied, as illustrated by FIG. 2. Primary cell cultures of human normal melanocytes were prepared from human foreskin. In order to determine the effect of compound HA15 on cell viability of melanocytes and fibroblasts, 10 μM of ciglitazone or 10 μM of HA15 were added to the cell samples. […]

For `CC(=O)Nc1nc(-c2cccc(NS(=O)(=O)c3cccc4c(N(C)C)cccc34)c2)cs1` [HA15, N-(4-(3-(5-(dimethylamino)naphthalene-1-sulfonamido)phenyl)thiazol-2-yl)acetamide], in data set [1], the “cell viability of normal melanocytes” value is given as “not affected”. Moreover, the “ability of cells to develop visible tumors” value in data set [2] is “markedly attenuated”. Further, in data set [3], the “cell viability of resistant melanoma cells” value is recorded as “inhibit cell viability of resistant melanoma cells”. Moreover, the “cell viability of normal fibroblasts” value in data set [4] is “not affected”.
